Reference: patent US10294202B2, “Pyrrolidinones as herbicides” (FMC Corporation, priority 2013, dated 2019)

What was measured:
foxtail, giant = assay: Test C pre-/postemergence herbicide test; assay type: in vivo, Setaria faberii
Outline: (§1)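 Visual rating, 0 (no effect) to 100 (complete control), versus untreated controls after 13 to 15 days in the greenhouse. Pre: seeds in loam/sand, sprayed at planting. Post: 1- to 4-leaf plants (2 to 18 cm) in peat-based mix. Compounds in non-phytotoxic solvent plus surfactant.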

pigweed = assay: Test A pre-/postemergence herbicide test; assay type: in vivo, Amaranthus retroflexus
Outline: (§2)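 Seeds sown in loam soil/sand blend received a preemergence directed soil spray of test chemical in non-phytotoxic solvent with surfactant; postemergence plants (2–10 cm, one- to two-leaf stage) were sprayed with the same formulation. After about 10 days in greenhouse, injury was rated visually versus untreated controls, 0 (no effect) to 100 (complete control).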

soybean = assay: Test C pre-/postemergence herbicide test; assay type: in vivo, Glycine max
Outline: as §1

morningglory = assay: Test C pre-/postemergence herbicide test; assay type: in vivo, Ipomoea coccinea
Outline: as §1

crabgrass, large = assay: Test C pre-/postemergence herbicide test; assay type: in vivo, Digitaria sanguinalis
Outline: as §1

barnyardgrass = assay: Test A pre-/postemergence herbicide test; assay type: in vivo, Echinochloa crus-galli
Outline: as §2

ryegrass, Italian = assay: Test C pre-/postemergence herbicide test; assay type: in vivo, Lolium multiflorum
Outline: as §1

galium = assay: Test C pre-/postemergence herbicide test; assay type: in vivo, Galium aparine
Outline: as §1

wheat = assay: Test A pre-/postemergence herbicide test; assay type: in vivo, Triticum aestivum; settings: Postemergence
Outline: as §2

johnsongrass = assay: Test C pre-/postemergence herbicide test; assay type: in vivo, Sorghum halepense
Outline: as §1

wheat (winter wheat) = assay: Test C pre-/postemergence herbicide test; assay type: in vivo, Triticum aestivum
Outline: as §1

corn [1] = assay: Test C pre-/postemergence herbicide test; assay type: in vivo, Zea mays
Outline: as §1

corn [2] = assay: Test A pre-/postemergence herbicide test; assay type: in vivo, Zea mays; settings: Postemergence
Outline: as §2

[3] = Preemergence, 31 g ai/ha, scale 0 to 100, 0 is no effect and 100 is complete control
[4] = Preemergence, 62 g ai/ha, scale 0 to 100 (0 no effect, 100 complete control)
[5] = Preemergence, 125 g ai/ha, scale 0 to 100 (0 no effect, 100 complete control)
[6] = Postemergence, 125 g ai/ha, visual rating on 0 to 100 scale (0 no effect, 100 complete control), approx. 10 days
[7] = Postemergence, 1000 g ai/ha, 0 to 100 scale (0 no effect, 100 complete control)
[8] = 125 g ai/ha, visual rating on 0 to 100 scale (0 no effect, 100 complete control), approx. 10 days
[9] = 1000 g ai/ha, 0 to 100 scale (0 no effect, 100 complete control)
[10] = Postemergence, 16 g ai/ha, scale 0 to 100 (0 no effect, 100 complete control)
[11] = Postemergence, 31 g ai/ha, scale 0 to 100 (0 no effect, 100 complete control)
[12] = Postemergence, 62 g ai/ha, scale 0 (no effect) to 100 (complete control)
[13] = Postemergence, 125 g ai/ha, scale 0 to 100 (0 no effect, 100 complete control)
[14] = Preemergence, 16 g ai/ha, scale 0 to 100
[15] = Postemergence, 500 g ai/ha, 0 to 100 scale (0 no effect, 100 complete control)
[16] = Preemergence, 125 g ai/ha, 0 to 100 scale where 0 is no effect and 100 is complete control
[17] = preemergence, 500 g ai/ha, 0 to 100 scale, 0 is no effect and 100 is complete control
[18] = 500 g ai/ha, 0 to 100 scale (0 no effect, 100 complete control)

O=C(Nc1ccccc1F)C1C(=S)NCC1c1cccc(C(F)(F)F)c1 (centres unmarked) [Compound 274]
Foxtail, Giant plant response rating (foxtail, giant; [3]): 80
Foxtail, Giant plant response rating (foxtail, giant; [4]): 85
Plant response rating, Foxtail, Giant (foxtail, giant; [5]): 90
Plant response rating (scale of 0 to 100), Foxtail, Giant (foxtail, giant; Preemergence, 250 g ai/ha): 95
Plant response rating, Pigweed (pigweed; [6]): 0
Plant response rating, Pigweed (pigweed; [7]): 20
Plant response rating, Pigweed (pigweed; preemergence, 1000 g ai/ha, 0 to 100 scale): 0
Soybean plant response rating (soybean; [3]): 0
Soybean plant response rating (soybean; [4]): 0
Plant response rating, Soybean (soybean; [5]): 5
Plant response rating (scale of 0 to 100), Soybean (soybean; Preemergence, 250 g ai/ha): 0
Morningglory plant response rating (morningglory; [3]): 0
Morningglory plant response rating (morningglory; [4]): 0
Plant response rating, Morningglory (morningglory; [5]): 0
Plant response rating (scale of 0 to 100), Morningglory (morningglory; Preemergence, 250 g ai/ha): 0
Crabgrass, Large plant response rating (crabgrass, large; [3]): 85
Crabgrass, Large plant response rating (crabgrass, large; [4]): 90
Plant response rating, Crabgrass, Large (crabgrass, large; [5]): 98
Plant response rating (scale of 0 to 100), Crabgrass, Large (crabgrass, large; Preemergence, 250 g ai/ha): 100
Plant response rating, Barnyardgrass (barnyardgrass; [7]): 90
Plant response rating, Barnyardgrass (barnyardgrass; preemergence, 1000 g ai/ha, 0 to 100 scale (0 no effect, 100 complete control)): 90
Ryegrass, Italian plant response rating (ryegrass, Italian; [3]): 0
Ryegrass, Italian plant response rating (ryegrass, Italian; [4]): 0
Plant response rating, Ryegrass, Italian (ryegrass, Italian; [5]): 5
Plant response rating (scale of 0 to 100), Ryegrass, Italian (ryegrass, Italian; Preemergence, 250 g ai/ha): 30
Galium plant response rating (galium; [3]): 0
Galium plant response rating (galium; [4]): 0
Plant response rating, Galium (galium; [5]): 80
Plant response rating, Wheat (wheat; [8]): 0
Plant response rating, Wheat (wheat; [9]): 40
Johnsongrass plant response rating (johnsongrass; [3]): 0
Johnsongrass plant response rating (johnsongrass; [4]): 0
Plant response rating, Johnsongrass (johnsongrass; [5]): 0
Plant response rating (scale of 0 to 100), Johnsongrass (johnsongrass; Preemergence, 250 g ai/ha): 30
Wheat plant response rating (wheat (winter wheat); [3]): 0
Wheat plant response rating (wheat (winter wheat); [4]): 0
Plant response rating (scale of 0 to 100), Wheat (wheat (winter wheat); Preemergence, 250 g ai/ha): 40
Corn plant response rating (corn [1]; [3]): 0
Corn plant response rating (corn [1]; [4]): 5
Plant response rating, Corn (corn [1]; [5]): 10
Plant response rating (scale of 0 to 100), Corn (corn [1]; Preemergence, 250 g ai/ha): 45
Plant response rating, Corn (corn [2]; [9]): 70

CN1CC(c2cccc(C(F)(F)F)c2)C(C(=O)Nc2ccccc2F)C1=O (centres unmarked) [Compound 277]
Plant response rating, Foxtail, Giant (foxtail, giant; [10]): 0
Plant response rating, Foxtail, Giant (foxtail, giant; [11]): 10
Plant response rating, Foxtail, Giant (foxtail, giant; [12]): 85
Plant response rating, Foxtail, Giant (foxtail, giant; [13]): 85
Foxtail, Giant plant response rating (foxtail, giant; [3]): 98
Foxtail, Giant plant response rating (foxtail, giant; [4]): 98
Plant response rating, Foxtail, Giant (foxtail, giant; [5]): 98
Plant response rating, Foxtail, Giant (foxtail, giant; [14]): 95
Plant response rating, Pigweed (pigweed; [6]): 30
Plant response rating, Pigweed (pigweed; [15]): 30
Plant response rating, Pigweed (pigweed; [16]): 20
Plant response rating, Pigweed (pigweed; [17]): 30
Plant response rating, Soybean (soybean; [10]): 0
Plant response rating, Soybean (soybean; [11]): 0
Plant response rating, Soybean (soybean; [12]): 0
Plant response rating, Soybean (soybean; [13]): 0
Soybean plant response rating (soybean; [3]): 0
Soybean plant response rating (soybean; [4]): 0
Plant response rating, Soybean (soybean; [5]): 5
Plant response rating, Soybean (soybean; [14]): 0
Plant response rating, Morningglory (morningglory; [10]): 15
Plant response rating, Morningglory (morningglory; [11]): 30
Plant response rating, Morningglory (morningglory; [12]): 30
Plant response rating, Morningglory (morningglory; [13]): 40
Morningglory plant response rating (morningglory; [3]): 0
Morningglory plant response rating (morningglory; [4]): 0
Plant response rating, Morningglory (morningglory; [5]): 45
Plant response rating, Morningglory (morningglory; [14]): 0
Plant response rating, Crabgrass, Large (crabgrass, large; [10]): 5
Plant response rating, Crabgrass, Large (crabgrass, large; [11]): 15
Plant response rating, Crabgrass, Large (crabgrass, large; [12]): 65
Plant response rating, Crabgrass, Large (crabgrass, large; [13]): 70
Crabgrass, Large plant response rating (crabgrass, large; [3]): 98
Crabgrass, Large plant response rating (crabgrass, large; [4]): 100
Plant response rating, Crabgrass, Large (crabgrass, large; [5]): 100
Plant response rating, Crabgrass, Large (crabgrass, large; [14]): 95
Plant response rating, Barnyardgrass (barnyardgrass; Postemergence, 125 g ai/ha, 0 to 100 scale, 0 is no effect, 100 is complete control): 90
Plant response rating, Barnyardgrass (barnyardgrass; [15]): 90
Plant response rating, Barnyardgrass (barnyardgrass; [16]): 90
Plant response rating, Barnyardgrass (barnyardgrass; [17]): 90
Plant response rating, Ryegrass, Italian (ryegrass, Italian; [10]): 0
Plant response rating, Ryegrass, Italian (ryegrass, Italian; [11]): 0
Plant response rating, Ryegrass, Italian (ryegrass, Italian; [12]): 5
Plant response rating, Ryegrass, Italian (ryegrass, Italian; [13]): 35
Ryegrass, Italian plant response rating (ryegrass, Italian; [3]): 40
Ryegrass, Italian plant response rating (ryegrass, Italian; [4]): 35
Plant response rating, Ryegrass, Italian (ryegrass, Italian; [5]): 40
Plant response rating, Ryegrass, Italian (ryegrass, Italian; [14]): 30
Plant response rating, Galium (galium; [10]): 40
Plant response rating, Galium (galium; [11]): 45
Plant response rating, Galium (galium; [12]): 60
Plant response rating, Galium (galium; [13]): 75
Galium plant response rating (galium; [3]): 100
Galium plant response rating (galium; [4]): 90
Plant response rating, Galium (galium; [5]): 100
Plant response rating, Galium (galium; [14]): 0
Plant response rating, Wheat (wheat; [8]): 60
Plant response rating, Wheat (wheat; [18]): 70
Plant response rating, Johnsongrass (johnsongrass; [10]): 0
Plant response rating, Johnsongrass (johnsongrass; [11]): 0
Plant response rating, Johnsongrass (johnsongrass; [12]): 0
Plant response rating, Johnsongrass (johnsongrass; [13]): 10
Johnsongrass plant response rating (johnsongrass; [3]): 40
Johnsongrass plant response rating (johnsongrass; [4]): 65
Plant response rating, Johnsongrass (johnsongrass; [5]): 85
Plant response rating, Johnsongrass (johnsongrass; [14]): 0
Plant response rating, Wheat (wheat (winter wheat); [10]): 0
Plant response rating, Wheat (wheat (winter wheat); [11]): 0
Plant response rating, Wheat (wheat (winter wheat); [12]): 0
Plant response rating, Wheat (wheat (winter wheat); [13]): 0
Wheat plant response rating (wheat (winter wheat); [3]): 60
Wheat plant response rating (wheat (winter wheat); [4]): 70
Plant response rating, Wheat (wheat (winter wheat); [14]): 40
Plant response rating, Corn (corn [1]; [10]): 0
Plant response rating, Corn (corn [1]; [11]): 0
Plant response rating, Corn (corn [1]; [12]): 20
Plant response rating, Corn (corn [1]; [13]): 10
Corn plant response rating (corn [1]; [3]): 25
Corn plant response rating (corn [1]; [4]): 85
Plant response rating, Corn (corn [1]; [5]): 90
Plant response rating, Corn (corn [1]; [14]): 0
Plant response rating, Corn (corn [2]; 125 g ai/ha, 0 to 100 scale, 0 is no effect, 100 is complete control): 90
Plant response rating, Corn (corn [2]; [18]): 90
